Paper PMC10058894, “Bioactive C21 Steroidal Glycosides from Euphorbia kansui Promoted HepG2 Cell Apoptosis via the Degradation of ATP1A1 and Inhibited Macrophage Polarization under Co-Cultivation” (Molecules, 2023)

Columns and labels:
[1] = tested on: HepG2 and RAW264.7 co-cultivation; assay: Cytokine levels by ELISA in co-cultivation; format: cell-based; conditions: 25 μmol∙L−1, 48 h
Na+-K+-ATPase = target: T1, Na+-K+-ATPase (Homo sapiens, UniProt P05023); assay: Na+-K+-ATPase enzyme activity detection kit; format: biochemical; conditions: HepG2 cells
T1 construct: endogenous in cells; host or cells: HepG2 (sonicated lysate supernatant)
Experimental: HepG2 cells were collected in centrifuge tubes, and every 5 million cells were added to 1 mL reagent to sonicate the cells (power 20%, ultrasound 3S, interval 10 s, repeat 30 times). Then, the samples were centrifuged at 8000 rpm/min for 10 min at 4 °C. The supernatant was then collected and placed on ice for testing. The operation was performed according to the instructions of the Na^+-K^+-ATPase enzyme activity detection kit (Solarbio, Beijing, China).

CETSA binding assay = conditions: 50 μmoL−1, western blot
Experimental: Figure 4 Compound 5 promoted the endocytosis and degradation of ATP1A1. (A) HepG2 cells were treated with 12.5 μmol∙L^−1 or 25 μmol∙L^−1 5 for 48 h, and the lysosomal co-localization assay was performed with a confocal laser. (B) Cells exposed to 25 μmol∙L^−1 5 for 12 h or 24 h were detected by fluorescence staining. (C) 5 is depicted in red, and the chains of Na^+, K^+-ATPase α/β/γ are represented by light blue, cyan-blue, and magenta, respectively. The crystallography, atomic coordinates, and structure factors have been deposited in the Protein Data Bank, www.pdb.org (accessed on 1 February 2023) (PDB ID code 3KDP). (D) The CETSA binding assay of ATP1A1 and β-actin in the presence or absence of 5 (50 μmoL^−1) at different temperatures was detected by western blot. The temperature-dependent melting curves and the apparent aggregation temperature were calculated by nonlinear regression. Values represent the mean ± SEM (N = 3 replicates).

ATP1A1 = ATP1A1 (Homo sapiens, UniProt P05023); assay: ATP1A1 level and location in HepG2 cells (western blot, fluorescence staining, lysosomal colocalization); format: cell-based; set-up: we focused on the regulatory effect of 5 on ATP1A1 in HepG2 cells; endogenous in cells; host or cells: HepG2
Experimental: HepG2 cells (4 × 10^5 cells/well) were incubated in confocal dishes with DMEM for 24 h and then treated with compounds for 48 h. Then, the cells were treated with 0.1% Triton X-100 for 10 min and washed with PBS five times. Finally, the cells were dyed with anti-ATP1A1 at 4 °C overnight. Nuclear staining with DAPI (1 μg∙mL^−1) was added for 7 min in the dark, and the cells were washed. The stained images were captured under a laser scanning confocal microscope (Nikon A1 AIR MP+, Tokyo, Japan). HepG2 cells (5 × 10^5 cells/well) were incubated in 6-well plates in complete DMEM. Cells were treated with compounds for 24 h. Then, the cells were stained with Annexin V/PI for 30 min at 4 °C in the dark, and apoptosis analysis was carried out by laser scanning confocal microscopy.
Protein samples were prepared using a RIPA lysis buffer. The concentration of the protein was analyzed using a nucleic acid and protein microanalyzer (Molecular Devices, San Jose, CA, USA). SDS–PAGE was performed to separate the proteins, which were then electrotransferred onto a PVDF membrane. The membrane was incubated with antibodies at 4 °C overnight. Next, the membrane was washed and incubated with an HRP-conjugated secondary antibody (Beyotime, BeiJing, China). Finally, signals were detected by the ECL method (Beyotime, BeiJing, China) and analyzed using ImageJ software.

[2] = tested on: NO production of LPS-stimulated RAW264.7 cells; assay: Nitric oxide production in LPS-stimulated RAW264.7 cells (Griess); format: cell-based
Experimental: (§1) RAW264.7 cells (8 × 10^4 cells/well) were incubated in 96T wells with DMEM for 24 h and then treated with compounds and LPS (1 μg/mL) for 24 h; this included the control group and LPS group. Then, the cell supernatant was collected for nitric oxide production assay. Next, 100 uL/well PBS was added to 96T wells, then 0.5% MTT (Sigma, Saint Louis, MO, USA) was added to 20 μL/well for 3.5 h. DMSO (150 μL/well) was added to dissolve the purple formazan. Cells were agitated for 15 min at room temperature, and the absorbance at 490 nm was recorded by SpetraMax M2 (Molecular Devices, San Jose, CA, USA). The NO inhibition rate (%) = (ODLPS group − ODcompound group)/(ODLPS group-ODcontrol group) × 100%. The IC50 value refers to the inhibitory of nitric oxide production of LPS-stimulated RAW264.7 cells. Then, 70 uL of each cell supernatant sample was added into a new 96T plate, and Griess A and Griess B were added separately. Then, the absorbance value at 540 nm was detected and then brought into the standard curve to assay the concentration of NO. The cell survival rate (%) = (ODcompound group − ODblank group)/(ODcontrol group − ODblank group) × 100%. The half concentration of the cell death (CC50) value refers to the concentration of compound 5 when 50% of RAW264.7 cells die. The iNOS inhibitor ([…], L-NMMA) was selected as the positive control. The levels of cytokines (IL-1β, IFN-γ, IL-10, TNF-α, and IL-6) in the cell supernatant were determined using an ELISA kit (Novus Biologicals, Shanghai, China, Lot: 834472, 770118, 772051, 486956, 602865). When the process was conducted according to the manufacturer’s instructions, the absorbance was read at 450 nm/570 nm in a SpectraMax 340PC microplate spectrophotometer (Molecular Devices, San Jose, CA, USA).

HepG2 cells = assay: MTT assay, cell viability of HepG2 cells; format: cell-based; conditions: Homo sapiens, HepG2, 48 h
Experimental: (§2) HepG2 cells (1 × 10^4 cells/well) or RAW264.7 cells ([…]) were incubated in 96T wells for 24 h. Then, HepG2 cells were treated with compounds or Adriamycin for 48 h. In addition, RAW264.7 cells were treated with compounds for 24 h. Then, 0.5% MTT (Sigma, Saint Louis, MO, USA) was added to 20 μL/well for 3.5 h. The supernatant was discarded, and DMSO (150 μL/well) was added to dissolve the purple formazan. Cells were agitated for 15 min at room temperature, and the absorbance at 490 nm was recorded by SpetraMax M2 (Molecular Devices, San Jose, CA, USA).

[3] = MTT assay, cell viability of RAW264.7 cells; format: cell-based; conditions: mouse, half inhibitory of RAW264.7 cells
Experimental: as §2, §1

Which results are given for C[C@H](O)[C@]1(O)CC[C@@]2(O)[C@]1(C)[C@H](OC(=O)/C=C/c1ccccc1)C[C@@H]1[C@@]3(C)CC[C@H](O[C@H]4C[C@H](O)[C@H](O)[C@@H](C)O4)CC3=CC[C@]12O [Compound 5, Cynsaccatol L]?
levels of TNF-α and IFN-γ ([1]; vs C0, C1 and C2 groups): significantly upregulate; levels of IL-6 and IL-10 ([1]; vs C0 group): decreased significantly; activity of NAK (Na+-K+-ATPase) (Na+-K+-ATPase): inhibited; denaturation temperature of β-actin (CETSA) (CETSA binding assay): did not change; endocytosis of ATP1A1 protein (lysosomal colocalization assay) (ATP1A1; HepG2, 12.5 or 25 μmol∙L−1 for 48 h, 25 μmol∙L−1 for 12 h or 24 h): induce the endocytosis of the ATP1A1 protein; expression of ATP1A1 (comparison with inhibitors) (ATP1A1; HepG2, 5 25 μmol∙L−1, digitonin 10, MK 2206 40, FR 180204 200 nmol∙L−1, western blot): decreased; green fluorescence intensity of ATP1A1 on the cell membrane (ATP1A1; HepG2 cells, fluorescence staining): significantly reduced in a dose-dependent manner; level of ATP1A1 (ATP1A1; HepG2 cells, western blot): significantly reduced; inhibitory activity on NO production relative to the positive control drug (L-NMMA) ([2]; LPS-stimulated RAW264.7 cells): 1000 times; IC50 ([2]; Mus musculus, LPS (1 μg/mL)-stimulated RAW264.7 cells, 24 h, read-out: RAW264.7 IC50 (inhibition of nitric oxide production)): 0.02 ± 0.02 µM; IC50 (HepG2 cells): 12.6 ± 2.13 µM; CC50 at 24 h [3]: 30.1 ± 3.14 µM
